According to US20210198647A1, “Enhancers of Neurolysin Activity” (Texas Tech University System, priority 2018, published 2021):
Several values for one entry are separate records, joined by “and”; a condition that tells them apart may be missing. Identical values can stand only once. Like-named read-outs stand apart in the source and are kept apart here. Marks after values point to notes of the source that are not given here. Peptide text beside a SMILES is read from it.

Experiments:
[1] = Plasma and brain protein binding, rapid equilibrium dialysis (RED); format: in vitro ADME, mouse; details: for fu in Plasma: 500 ng/mL
Procedure: Plasma and Brain Protein Binding: The rapid equilibrium dialysis (RED) plate and single-use inserts with a membrane MWCO of 8 kDa and sealing tapes for 96-well plates were purchased from (Pierce Biotechnology, Thermo Fisher Scientific, Waltham, Mass.). Test compounds were dissolved in dimethyl sulfoxide and then diluted to 10 μg/mL with water for binding studies. The stock solutions (10 μg/mL) were added to mouse brain homogenates or plasma. The final concentration of the compounds for the equilibrium dialysis experiment was 500 ng/mL. The RED device was assembled according to the manufacturer's instructions. A 200 μL aliquot of plasma or brain homogenate spiked with 500 ng/mL of selected compound was added to the sample chamber of insert (donor) and 400 μL of DPBS was added to the buffer chamber of the dialysis membrane (receiver). Then, the base plate was covered with a sealing tape and was incubated at 37° C. on an orbital shaker at 250 rpm for 4 hours to achieve equilibrium. Compounds were evaluated in triplicate for each experiment. At the end of incubation, equal volumes from both donor and receiver chambers were taken and placed in separate microcentrifuge for content analysis using LC-MS/MS.

in vitro = details: mouse
Neurolysin (Nln) = biological target: T1, Neurolysin (Nln) (Rattus norvegicus, UniProt P42676); experiment: Nln activation in isolated enzyme assay (A50, Amax); format: biochemical; details: 95% CI in parentheses; for Amax (maximum % activation achieved): 100% = normal enzyme turnover
T1 construct: polyhistidine (N); made in house; host or cells: Escherichia coli (pBAD/His vector), if the rat enzyme of b61 was used
T1 sequence (P42676 38-704): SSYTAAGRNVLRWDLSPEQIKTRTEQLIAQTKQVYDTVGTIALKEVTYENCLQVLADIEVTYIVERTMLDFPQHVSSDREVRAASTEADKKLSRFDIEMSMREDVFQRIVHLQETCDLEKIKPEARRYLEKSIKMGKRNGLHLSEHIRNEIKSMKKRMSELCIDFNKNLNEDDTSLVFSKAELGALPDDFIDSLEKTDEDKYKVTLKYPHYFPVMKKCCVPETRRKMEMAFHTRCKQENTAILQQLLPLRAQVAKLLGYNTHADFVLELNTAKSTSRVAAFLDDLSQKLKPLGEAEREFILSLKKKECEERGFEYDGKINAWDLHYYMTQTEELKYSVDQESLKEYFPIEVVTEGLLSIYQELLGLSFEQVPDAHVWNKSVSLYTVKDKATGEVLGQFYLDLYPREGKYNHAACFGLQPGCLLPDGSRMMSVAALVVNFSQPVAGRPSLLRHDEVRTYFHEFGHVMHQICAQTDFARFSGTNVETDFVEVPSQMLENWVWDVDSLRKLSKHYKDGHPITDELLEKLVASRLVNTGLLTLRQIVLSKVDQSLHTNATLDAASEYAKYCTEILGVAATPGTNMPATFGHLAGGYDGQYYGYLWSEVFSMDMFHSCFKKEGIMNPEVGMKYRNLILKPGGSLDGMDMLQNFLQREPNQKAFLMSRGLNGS

[2] = biological target: thimet oligopeptidase (TOP) (Homo sapiens, UniProt P52888); experiment: Peptidase selectivity: quenched fluorescent substrate hydrolysis by TOP; details: for effect on activity of TOP (in words): concentration-response up to 300 μM; for inhibition at 300 µM: read-out: inhibited activity of TOP by
Sequence of thimet oligopeptidase (TOP) (P52888 whole entry): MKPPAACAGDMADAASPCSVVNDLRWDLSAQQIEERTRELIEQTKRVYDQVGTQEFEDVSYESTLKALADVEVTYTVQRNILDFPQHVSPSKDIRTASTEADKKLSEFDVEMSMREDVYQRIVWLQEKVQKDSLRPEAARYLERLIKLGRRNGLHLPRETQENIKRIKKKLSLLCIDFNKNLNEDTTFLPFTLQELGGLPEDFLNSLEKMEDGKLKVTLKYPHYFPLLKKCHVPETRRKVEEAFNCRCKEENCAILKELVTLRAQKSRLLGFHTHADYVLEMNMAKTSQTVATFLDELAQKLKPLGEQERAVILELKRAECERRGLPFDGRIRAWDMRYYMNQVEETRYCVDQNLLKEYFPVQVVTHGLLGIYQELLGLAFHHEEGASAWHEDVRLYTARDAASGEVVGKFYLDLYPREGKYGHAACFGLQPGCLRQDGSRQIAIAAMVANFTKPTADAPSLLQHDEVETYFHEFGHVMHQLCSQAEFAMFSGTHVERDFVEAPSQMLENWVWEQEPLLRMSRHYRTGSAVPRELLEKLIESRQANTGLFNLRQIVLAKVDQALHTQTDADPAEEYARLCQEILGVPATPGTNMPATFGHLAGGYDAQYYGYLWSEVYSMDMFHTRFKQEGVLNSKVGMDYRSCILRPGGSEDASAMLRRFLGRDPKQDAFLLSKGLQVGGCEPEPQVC
Procedure: Activity of recombinant human TOP was assessed in the same way as for neurolysin, except that the assay was carried out in the presence of 0.1 mM dithiothreitol (37).

[3] = test system: co-culture of primary mouse astrocytes and immortalized mouse endothelial cells (bEnd3); experiment: In vitro BBB permeability, apical to basolateral transport; format: in vitro ADME; details: 10 μg/mL, 37° C.
Procedure: The permeability coefficient (Pe) was calculated from the cleared volume of each compound versus time. Values represent the mean±SD of three measurements.
Mouse primary astrocytes were isolated from the cerebral cortices of one day old pups (CD-1 mice, Charles Rivers Laboratory) following a literature method.^36 After extracting the brain, cortices were separated, minced and placed in Hank's balanced salt solution (HBSS) without calcium and magnesium, supplemented with gentamycin (10 μg/m). […] The cell suspensions were seeded into a T75 flask and the medium was changed every 3 days for 10-14 days or until reaching confluency.
For bEnd3 and astrocyte co-culture, the Transwell filters ([…] pore size, 12-well; Corning, Lowell, Mass.) were used. First, the Transwell filter was inverted and astrocytes at a density of 150,000 cells/filter were seeded onto the abluminal side of the filter and allowed to adhere for 4 hours. Then the Transwell filter was inverted back and the cells were grown for 2 days in astrocyte medium. At the end of 48 hours, bEnd3 cells at a density of 50,000 cells/filter were seeded onto the upper/luminal side of the filter and the co-culture of astrocytes and bEnd3 cells were grown for an additional 8 days. The medium for both compartments were changed every other day according to literature proceedures.^37
The apparent permeability coefficient (Pe, in cm/min) was calculated according to the cleared volume of each time point, as previously described.^38,39
Permeability measurement for each compound was run for 120 minutes. The media was removed and transwells were rinsed and incubated with HBSS buffer at 37° C. for 30 minutes. […] Concentration of compounds was determined by LC-MS/MS. Since the blank Transwell insert itself (without cells) provides resistance to the passage of buffer and compound from the donor to receiver chamber, the permeability of each compound was also measured in a blank insert and the final permeability coefficient results were calculated by considering the permeability of each compound in a blank insert.

[4] = In vitro metabolic stability in mouse plasma and brain homogenate; details: 10% mouse brain homogenate; 500 ng/mL; 37° C.
[5] = biological target: T2, angiotensin converting enzyme (ACE) (Homo sapiens, UniProt P12821); experiment: Peptidase selectivity: quenched fluorescent substrate hydrolysis by ACE; format: biochemical; details: for effect on activity of ACE (in words): concentration-response up to 300 μM; for inhibition at 300 µM: 300 μM compound, read-out: inhibited activity of ACE by
T2 construct: purchased R & D systems 929-ZN
T2 sequence (P12821 30-1306): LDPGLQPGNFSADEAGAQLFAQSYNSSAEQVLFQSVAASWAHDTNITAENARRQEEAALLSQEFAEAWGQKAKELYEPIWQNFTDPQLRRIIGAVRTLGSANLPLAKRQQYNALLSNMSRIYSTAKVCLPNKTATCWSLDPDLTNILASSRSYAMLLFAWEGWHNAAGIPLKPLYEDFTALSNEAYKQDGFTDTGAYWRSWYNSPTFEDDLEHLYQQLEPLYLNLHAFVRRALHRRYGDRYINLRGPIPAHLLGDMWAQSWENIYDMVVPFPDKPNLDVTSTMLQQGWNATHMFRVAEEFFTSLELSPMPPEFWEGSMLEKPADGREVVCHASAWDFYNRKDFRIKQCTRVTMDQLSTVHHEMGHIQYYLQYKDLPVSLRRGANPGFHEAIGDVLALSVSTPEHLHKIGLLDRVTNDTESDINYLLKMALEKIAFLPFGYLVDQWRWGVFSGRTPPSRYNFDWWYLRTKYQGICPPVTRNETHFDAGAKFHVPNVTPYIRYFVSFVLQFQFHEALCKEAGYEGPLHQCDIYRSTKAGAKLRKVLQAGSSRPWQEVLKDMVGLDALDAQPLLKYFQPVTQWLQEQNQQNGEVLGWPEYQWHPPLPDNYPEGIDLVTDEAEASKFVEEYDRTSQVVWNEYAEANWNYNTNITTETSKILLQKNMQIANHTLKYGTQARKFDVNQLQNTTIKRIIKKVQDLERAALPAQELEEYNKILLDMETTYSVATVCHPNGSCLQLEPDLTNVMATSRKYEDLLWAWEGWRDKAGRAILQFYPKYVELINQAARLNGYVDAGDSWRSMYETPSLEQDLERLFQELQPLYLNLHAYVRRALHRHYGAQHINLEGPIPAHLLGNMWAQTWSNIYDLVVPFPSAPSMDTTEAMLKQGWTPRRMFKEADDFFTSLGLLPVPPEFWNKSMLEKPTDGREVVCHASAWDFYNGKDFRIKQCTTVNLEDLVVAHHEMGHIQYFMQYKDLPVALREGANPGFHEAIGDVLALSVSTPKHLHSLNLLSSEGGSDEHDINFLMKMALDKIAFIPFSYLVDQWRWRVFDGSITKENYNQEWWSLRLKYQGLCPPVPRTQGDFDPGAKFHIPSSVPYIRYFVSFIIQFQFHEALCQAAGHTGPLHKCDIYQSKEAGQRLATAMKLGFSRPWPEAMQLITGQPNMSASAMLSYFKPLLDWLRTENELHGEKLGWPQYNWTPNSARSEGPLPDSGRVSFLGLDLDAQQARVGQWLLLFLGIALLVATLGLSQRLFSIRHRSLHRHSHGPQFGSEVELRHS

[6] = biological target: T3, angiotensin converting enzyme 2 (ACE2) (Homo sapiens, UniProt Q9BYF1); experiment: Peptidase selectivity: quenched fluorescent substrate hydrolysis by ACE2; format: biochemical; details: for effect on activity of ACE2 (in words): concentration-response up to 300 μM; for inhibition at 300 µM: 300 μM compound, read-out: inhibited activity of ACE2 by
T3 construct: purchased R & D systems 933-ZN
T3 sequence (Q9BYF1 18-805): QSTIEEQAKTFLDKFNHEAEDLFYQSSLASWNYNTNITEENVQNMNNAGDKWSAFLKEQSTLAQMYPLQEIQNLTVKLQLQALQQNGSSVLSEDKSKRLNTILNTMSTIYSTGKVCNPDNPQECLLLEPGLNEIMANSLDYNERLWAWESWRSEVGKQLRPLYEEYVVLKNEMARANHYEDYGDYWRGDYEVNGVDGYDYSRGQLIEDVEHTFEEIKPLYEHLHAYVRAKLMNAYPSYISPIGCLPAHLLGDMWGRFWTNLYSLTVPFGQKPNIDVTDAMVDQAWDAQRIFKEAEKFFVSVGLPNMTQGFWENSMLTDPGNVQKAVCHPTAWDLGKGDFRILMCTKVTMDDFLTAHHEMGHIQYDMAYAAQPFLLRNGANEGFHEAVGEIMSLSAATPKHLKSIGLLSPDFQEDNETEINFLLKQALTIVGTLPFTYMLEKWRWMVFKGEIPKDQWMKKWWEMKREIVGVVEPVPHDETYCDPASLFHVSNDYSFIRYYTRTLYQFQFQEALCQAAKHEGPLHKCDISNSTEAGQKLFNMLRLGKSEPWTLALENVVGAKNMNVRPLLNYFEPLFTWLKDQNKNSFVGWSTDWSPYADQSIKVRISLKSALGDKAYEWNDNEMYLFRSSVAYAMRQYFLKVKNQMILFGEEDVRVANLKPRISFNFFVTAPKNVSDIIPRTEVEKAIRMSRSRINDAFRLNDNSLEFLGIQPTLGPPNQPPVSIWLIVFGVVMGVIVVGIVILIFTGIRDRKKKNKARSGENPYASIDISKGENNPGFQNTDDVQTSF

[7] = biological target: T4, rat recombinant neurolysin (Rattus norvegicus, UniProt P42676); experiment: Enzymatic assay: QFS hydrolysis by rat recombinant neurolysin; format: biochemical; details: for Km value decreased by / Vmax increased by: 40 μM modulator; for Vmax: QFS hydrolysis; for activity at 10 µM: read-out: % activity at 10; for activity at 100 µM: read-out: % activity at (100)
T4 construct: polyhistidine (N); made in house; host or cells: Escherichia coli (pBAD/His vector)
T4 sequence (P42676 38-704): as the sequence (P42676 38-704) above
Procedure: Rat recombinant neurolysin—N-terminal polyhistidine tagged recombinant rat neurolysin was produced in Escherichia coli using a plasmid construct in pBAD/His vector system (Invitrogen) kindly provided by Dr. David W. Rodgers (University of Kentucky) (32,33). Bacterial culture was carried out in Terrific Broth in 2 L Erlenmeyer flasks using an incubator shaker (1-2400, New Brunswick Scientific). Expression was induced by addition of arabinose (1 mM final concentration), the cells were pelleted 3 h after induction and stored at −80° C. freezer. Bacterial pellets were resuspended and lysed in phosphate buffer (20 mM NaH2PO4, 500 mM NaCl, 0.05% Tween-20, pH 8.0) containing 0.25 mg/ml lysozyme, 1 mM phenylmethylsulfonyl fluoride, 0.05 mg/ml DNAse and 0.02 mg/ml RNase, followed by brief sonication. After centrifugation (40,000×g, 20 min at 4° C.) the supernatant was applied to a Ni-NTA Superflow cartridge (Qiagen), followed by washing and elution of recombinant neurolysin with phosphate buffer containing 25 and 250 mM imidazole, respectively. The eluted protein was further purified by size exclusion chromatography using a TSK gel BioAssist G2SWxl column (Tosoh bioscience) in AKTA Purifier FPLC system (GE Healthcare). […] Specific activity of recombinant neurolysin was determined by an enzymatic assay described below.
All assays were initiated by addition of QFS (100 μl assay volume in 96-well plates), and each experimental sample was present in duplicate.
In all experiments, test compounds were incubated with neurolysin for 10 min at 37° C. before addition of the substrate to start the reaction. All test compounds were dissolved in DMSO at 10 to 50 mM stock concentrations.
Statistical Analyses—statistical analyses and curve fitting were conducted with GraphPad Prism 6.0 software. For each enzymatic reaction, slope of the line which represents the initial velocity (Vo) for the reaction progress curve was calculated using the liner regression model of the software (Vo=Slope=Δ fluorescent intensity of the reaction product/Δ time). EC50 values for the modulators were calculated by fitting initial velocity values for hydrolysis of QFS by neurolysin in the presence of varying concentrations of a modulator into a nonlinear regression model for the three-parameter log(stimulator) vs. response equation [Y=Bottom+(Top−Bottom)/(1+10^((Log EC50−X)))].

neprilysin (NEP) = biological target: T5, neprilysin (NEP) (Homo sapiens, UniProt P08473); experiment: Peptidase selectivity: quenched fluorescent substrate hydrolysis by NEP; format: biochemical; details: 300 μM compound; read-out: inhibited activity of NEP by
T5 construct: purchased R & D systems 1182-ZNC

mouse brain neurolysin = biological target: T6, mouse brain neurolysin (Mus musculus, UniProt Q91YP2); experiment: Enzymatic assay: QFS hydrolysis by mouse brain-purified neurolysin; format: biochemical
T6 construct: P10 mouse forebrains were used for purification of native neurolysin; from tissue; host or cells: P10 mouse forebrain, soluble fraction, size-exclusion fraction
Procedure: In brief, forebrains were homogenized in hypotonic buffer (20 mM NaPO4, pH 7.2) followed by gentle sonication and centrifugation (30 min at 48,000×g at 4° C.). The resulting supernatant was filtered through a 100 kDa cut-off centrifugal filtering unit and concentrated in a 30 kDa cut-off centrifugal filtering unit (Amicon Ultra; Millipore). Neurolysin was semi-purified from the concentrate by size exclusion chromatography using a Superdex 200 Increase 10/300 GL column (GE Healthcare) in AKTA Purifier FPLC system (GE Healthcare). Elution of neurolysin was tracked by the enzymatic assay described below, and the fraction with the highest neurolysin activity was directly used for the experiments.
Enzymatic assays—activity of neurolysin was measured in a continuous assay by documenting the increase in fluorescence occurring upon cleavage of a quenched fluorescent substrate (QFS) Mca-Pro-Leu-Gly-Pro-D-Lys(DNP)-OH (Bachem) (25,36). […]
Statistical Analyses—statistical analyses and curve fitting were conducted with GraphPad Prism 6.0 software. For each enzymatic reaction, slope of the line which represents the initial velocity (Vo) for the reaction progress curve was calculated using the liner regression model of the software (Vo=Slope=Δ fluorescent intensity of the reaction product/Δ time). […]

[8] = biological target: T7, human recombinant neurolysin (Homo sapiens, UniProt Q9BYT8); experiment: Enzymatic assay: QFS hydrolysis by human recombinant neurolysin; format: biochemical
T7 construct: purchased R & D systems 3814-ZN
T7 sequence (Q9BYT8 38-704): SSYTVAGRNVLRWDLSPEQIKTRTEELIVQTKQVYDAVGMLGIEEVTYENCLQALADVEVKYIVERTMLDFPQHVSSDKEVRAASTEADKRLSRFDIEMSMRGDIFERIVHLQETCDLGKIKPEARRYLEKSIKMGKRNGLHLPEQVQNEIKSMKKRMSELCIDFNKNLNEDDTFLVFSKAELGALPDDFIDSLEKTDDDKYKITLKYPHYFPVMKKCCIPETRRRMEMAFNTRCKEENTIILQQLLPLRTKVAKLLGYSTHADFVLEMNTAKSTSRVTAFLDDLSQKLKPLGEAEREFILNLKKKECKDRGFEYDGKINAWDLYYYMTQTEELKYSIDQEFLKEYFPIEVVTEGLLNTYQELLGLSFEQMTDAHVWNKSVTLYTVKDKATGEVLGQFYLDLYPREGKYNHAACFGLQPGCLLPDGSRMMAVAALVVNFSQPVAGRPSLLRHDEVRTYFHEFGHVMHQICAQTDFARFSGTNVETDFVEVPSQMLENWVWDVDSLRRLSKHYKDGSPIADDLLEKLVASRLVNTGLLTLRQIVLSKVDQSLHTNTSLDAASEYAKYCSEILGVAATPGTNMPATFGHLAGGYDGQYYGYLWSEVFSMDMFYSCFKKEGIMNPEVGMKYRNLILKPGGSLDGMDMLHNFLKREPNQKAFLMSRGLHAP
Procedure: Enzymatic assays—activity of neurolysin was measured in a continuous assay by documenting the increase in fluorescence occurring upon cleavage of a quenched fluorescent substrate (QFS) Mca-Pro-Leu-Gly-Pro-D-Lys(DNP)-OH (Bachem) (25,36). […] All assays were initiated by addition of QFS (100 μl assay volume in 96-well plates), and each experimental sample was present in duplicate.
Screening of test compounds—primary screening of top-ranked 40 compounds (received from NCI DTP) was carried out at 10 and 100 μM final assay concentrations. […] In all experiments, test compounds were incubated with neurolysin for 10 min at 37° C. before addition of the substrate to start the reaction. […]

[9] = QFS 15 μM, absence of dynorphin A (1-13)
[10] = QFS 15 μM, presence of dynorphin A (1-13) 1 μM
[11] = QFS 25 μM, neurolysin 0.3 nM, 100% = no compound

Structure (SMILES): N[C@@H](Cc1c[nH]cn1)C(=O)N[C@@H](Cc1c[nH]c2ccccc12)C(=O)O [Compound 4, Histidine-tryptophan]
- fu in Plasma ([1]; mouse plasma): 0.93 ± 0.13
- half-life at 500 ng/mL (in vitro; plasma): > 5 h

Structure (SMILES): N[C@@H](Cc1c[nH]cn1)C(=O)NCCc1c[nH]c2ccccc12 [Compound 9d, (S)—N-(2-(1H-indol-3-yl)ethyl)-2-amino-3-(1H-imidazol-4-yl)propanamide]
- Amax (maximum % activation achieved) (Neurolysin (Nln)): 259 (240.7 to 281) %
- EC50 (Neurolysin (Nln); A50 (concentration required to activate Nln by 50%)): 6.1 µM
- effect on activity of TOP (in words) [2]: only exhibited inhibition at concentrations approaching 300 μM
- fu in Plasma ([1]; mouse plasma): 0.63 ± 0.076
- permeability coefficient (Pe) [3]: 1.07±0.12×10^−3 cm/min
- half-life at 500 ng/mL (in vitro; mouse plasma): > 16.7 h
- t1/2 Mouse Brain [4]: 1.1 h and 1.09 ± 0.07 h
- effect on activity of ACE (in words) [5]: show inhibition of ACE at high concentration
- effect on activity of ACE2 (in words) [6]: showed inhibition of ACE2 at high concentrations

Structure (SMILES): N[C@@H](Cc1c[nH]cn1)C(=O)NCc1cccc2ccccc12 [Compound 10c, (S)-2-amino-3-(1H-imidazol-4-yl)-N-(naphthalen-1-ylmethyl)propanamide]
- Amax (maximum % activation achieved) (Neurolysin (Nln)): 264 (256.3 to 272.6) %
- effect on activity of TOP (in words) [2]: No appreciable inhibition
- fraction unbound at 4 h, 500 ng/mL ([1]; mouse brain homogenate, read-out: fu in Brain): 0.052 ± 0.003
- fraction unbound at 4 h, 500 ng/mL ([1]; mouse plasma, read-out: fu in Plasma): 0.45 ± 0.013
- permeability coefficient (Pe) [3]: 1.09±0.09×10^−3 cm/min
- t1/2 Mouse Brain [4]: 1.33 h and 1.34 ± 0.033 h
- effect on activity of ACE (in words) [5]: no inhibition at the maximum concentration tested
- effect on activity of ACE2 (in words) [6]: no inhibition up to 300 μM

Structure (SMILES): N[C@@H](Cc1c[nH]cn1)C(=O)N[C@@H](Cc1ccc(O)cc1)C(=O)O [NlnA#1, L-histidyl-L-tyrosine] (H-His-Tyr-OH)
- Km value decreased by [7]: ~43%
- Vmax increased by [7]: ~29%
- Emax [7, 9]: 292%
- Emax [7, 10]: 238%
- Emax [7, 11]: 235%
- Vmax ([7]; rNln + 40 μM modulator): 124.2*** FLU/ng protein per min
- Vmax ([7]; rNln + 100 μM modulator): 164.8*** FLU/ng protein per min
- activity at 10 µM [7]: 121%
- activity at 100 µM [7]: 226%
- inhibition at 300 µM [2]: 25.9 ± 0.7%
- inhibition at 300 µM (neprilysin (NEP)): 2.9 ± 4.7%
- Emax (mouse brain neurolysin): 190%
- inhibition at 300 µM [5]: 22.6 ± 2.5%
- Emax [8]: 204%
- inhibition at 300 µM [6]: 13.4 ± 2.9%

Structure (SMILES): NC(Cc1c[nH]cn1)C(=O)NC(Cc1c[nH]cn1)C(=O)O (mixture of isomers) [NlnA#2, D,L-histidyl-D,L-histidine]
- Km value decreased by [7]: ~42.4%
- Vmax increased by [7]: ~16.5%
- Emax [7, 9]: 255%
- Emax [7, 10]: 198%
- Emax [7, 11]: 203%
- Vmax ([7]; rNln + 40 μM modulator): 112.5* FLU/ng protein per min
- Vmax ([7]; rNln + 100 μM modulator): 148.2*** FLU/ng protein per min
- activity at 10 µM [7]: 122%
- activity at 100 µM [7]: 206%
- inhibition at 300 µM [2]: 15.6 ± 2.6%
- inhibition at 300 µM (neprilysin (NEP)): 1.6 ± 2%
- Emax (mouse brain neurolysin): 258%
- inhibition at 300 µM [5]: 12.2 ± 1.8%
- Emax [8]: 214%
- inhibition at 300 µM [6]: 10.9 ± 2.9%
